Test results published in US20110065749A1, “METHOD AND PHARMACEUTICAL COMPOSITION FOR TREATMENT OF MENTAL DISORDERS” (ACTIVE CO. LTD., priority 2008, published 2011).
Where a name gives a salt, the structure may show the parent alone.

Legend:
Type in all cases: in vivo, human
[1] = system: Alcoholism; assay: Case 6: alcoholism patient; conditions: before Cephadol
From the text: Case 6: Alcoholism Patient was a office worker, who was drinking 1 to 2 liters of beer and 3 to 5 glasses of distilled spirit or whisky with water every day. They were drinking alcohol in daytime on Sundays, and suffering from a complication of liver dysfunction.

[2] = system: manic state of bipolar I disorder; assay: Case 3: manic-depressive illness patient; conditions: 1,200 mg, before Cephadol
Description: Case 3: Manic-Depressive Illness Patient was a person, who had continuously been in a manic state of bipolar I disorder for over one month. An antiepileptic drug, or 1,200 mg of Limas®, was ineffective. Antipsychotic drugs were not usable due to significant side effects. […] When they discontinued the administration of Cephadol®, the manic state appeared after 5 days.

[3] = system: Fibromyalgia; assay: Case 18: fibromyalgia (4) patient; conditions: before Cephadol
From the text: Case 18: Fibromyalgia (4)
A person (housewife) is a patient with depression, having received regular medical treatment since seven years ago. […] However, a diagnosis with autoimmune disease or inflammatory disease was negative from their blood test. Due to back pain and fingertip pain, they were unable to make household work, and it was painful for them to hold even a light object by hand. They had pain at 15 points among the 18 tender points of the whole body, and was diagnosed with fibromyalgia. […] They had to stay in bed all day long, and such a condition lasted for the long term.

[4] = system: Fibromyalgia; assay: Case 16: fibromyalgia (2) patient; conditions: before Cephadol
From the text: […] There were persistent systemic malaise, lassitude, depressed mood, sleeplessness, neck stiffness and systemic pain. Their score of depression on Hamilton D scale was 25 to 28. No hematological abnormality was detected. As a result of overall judgment based on examinations including a tender point examination, they were diagnosed as having fibromyalgia. They were unresponsive to tricyclic or tetracyclic antidepressants, SSRIs, SNRIs, and Moclobemide. Then, they continued the treatment with 60 mg/day fluoxetine. […] It was concluded that the onset of their depression was due to the systemic pain, and the depression was improved by the drastic improvement of the systemic pain.

[5] = system: depression; assay: Case 9: depressed symptoms patient, HAMD; conditions: 40 mg, before Cephadol
From the text: For evaluation of the state of depression, for example, Hamilton's rating scale for depression (HAMD) is available. The HAMD was developed by Max Hamilton in 1960 for the purpose of measuring the severity of a patient diagnosed with depression (Hamilton, M., Journal of Neurology, Neurosurgery & Psychiatry, 23-56-62 (1960) and Hamilton, M., “Development of rating scale for primary depressive illness”, British Journal of Social and Clinical Psychology, 6: 278-296 (1967)). In view of its high usefulness, it is a representative scale of evaluation for depression, widely used in clinical researches and practices. The 17 item version is used for clinical trials of antidepressants in Japan, whereas the 21 item version and the 24 item version are used in Europe or other countries.
When the severity is calculated using Hamilton's rating scale for depression (HAMD), each item is evaluated with three grades of 0-2, or five grades of 0-4. For example, the case is diagnosed as severe where the point is 20 or higher and, as the point decreases, the symptom is diagnosed as being improved.
Case 9: Depressed Symptoms
Administration to the patient of 75 mg/day Cephadol® reduced the HAMD score from 20 points to 7 points after 3 days.

[6] = system: Bulimia; assay: Case 8: bulimia (2) patient; conditions: 40 mg
From the text: Patient was a person, who had been suffering from bulimia. The bulimia persisted even after their marriage and childbearing.

[7] = system: Fibromyalgia; assay: Case 15: fibromyalgia (1) patient; conditions: maximum doses, three years, before Cephadol
Description: They then visited the inventor's clinic. When the inventor started the treatment with 75 mg/day Cephadol®, systemic pain of the patient was improved in two days. […] As a result, they became able to perform usual household work, go outside, and further make a trip.

[8] = system: Alzheimer-Type Dementia; assay: Case 4: Alzheimer-type dementia patient
From the text: Case 4: Alzheimer-Type Dementia

N#CN [Cyanamide]
efficacy of earlier drugs on alcoholism [1]: without any efficacy

O=C([O-])[O-].[Li+].[Li+] [Limas®]
efficacy on manic state [2]: ineffective

CCN(CC)C(=O)C1(c2ccccc2)CC1CN (stereo not shown) [Milnaciplan]
back pain [3]: rather deteriorated their back pain

O=C(NCCN1CCOCC1)c1ccc(Cl)cc1 [Moclobemide]
response to earlier drugs [4]: unresponsive

Fc1ccc([C@@H]2CCNC[C@H]2COc2ccc3c(c2)OCO3)cc1 [Paxil®, paroxetine]
depression [5]: without any improvement

CNCCC(Oc1ccc(C(F)(F)F)cc1)c1ccccc1.Cl (stereo not shown) [Prozac®]
bulimia ([6]; before Cephadol): slightly improved the bulimia | frequency of overeating and emesis ([6]; previously two to three times a day): reduced to once daily

CN(C)CCC=C1c2ccccc2CCc2ccccc21 [Triptanol]
response of fibromyalgia to earlier medicines [7]: without any improvement

COc1cc2c(cc1OC)C(=O)C(CC1CCN(Cc3ccccc3)CC1)C2 (stereo not shown) [donepezil hydrochloride]
dementia ([8]; donepezil hydrochloride together with 50 mg Cephadol before sleeping): significant improvement of the dementia | side effect that made treatment difficult ([8]; donepezil hydrochloride without Cephadol): excitatory side effect
